# In patent US20140120165A1, “CORTICOSTEROID PARTICLES AND METHOD OF PRODUCTION” (priority 2010, published 2014):
# Settings: in water at 20° C.; cited from earlier work
row,Molecule,water solubility
1,ClCCl [dichloromethane],13 grams/liter
2,CCOCC [diethyl ether],69 grams/liter
3,CCOC(C)=O [ethyl acetate],83 grams/liter
4,CC(=O)OC(C)C [isopropyl acetate],43 grams/liter
5,CC(=O)CC(C)C [methyl isobutyl ketone],19 grams/liter.

# Settings: rat
# Experimental: Seven budesonide formulations were assessed for the ability to cross the lung by perfusion on an isolated lung perfusion system. LC-MS/MS was utilized to measure budesonide concentration in perfusate samples collected for up to approximately 123 minutes after intratracheal (IT) administration of the representative formulations to male Sprague-Dawley rats. The mass of budesonide remaining in the lung was also measured at the terminus of the procedure.
# After release from quarantine, the study animals were euthanized with an IP injection of a barbiturate (minimum 150 mg/kg pentobarbital). The trachea, pulmonary artery and left ventricle were cannulated and the heart/lung bloc was removed from the thoracic cavity. The heart/lung bloc was placed in an artificial thoracic cavity (Hugo Sachs Electronik-Harvard). The budesonide suspension test formulations were administered by intratracheal installation at a volume of 40-100 μL. Following test formulation delivery, fractionated single pass perfusate samples were collected over a 2 hour period. The concentration of budesonide in the perfusate and lung tissue was determined by Liquid Chromatography-Mass Spectrometry (LC-MS/MS).
# The test formulations contained in single unit dose vials (1.5 ml or 2 ml) were inverted several times before being transferred to a secondary container. Bulk formulations were diluted in saline and were gently swirled, and then aliquots of 40-100 μl were drawn up in a syringe and installed IT into the isolated perfused lung model directly through a cannula placed at the top of the trachea.
# The Study animals were euthanized with an overdose of pentobarbital. During necropsy, the trachea and lungs were excised from the rat and placed on the IPL system cannula. The lungs were ventilated with room air at a rate of 60 breaths per minute by negative pressure ventilation. Chamber pressures were adjusted to reach target goals of a tidal volume of 2.5 ml and a peak expiratory flow of 12 ml/sec.
# Single pass perfusate samples were collected over a 60-120 minute period. Perfusate samples were fractionated into 17 samples collected at approximately (min): 0.67; 1.3; 2.7; 4; 6; 8; 10; 12.5; 15; 22; 29; 36; 43; 63; 83; 103; and 123.
# Perfusate and lung tissue samples were stored at −80° C. prior to subsequent analysis by LC-MS/MS. During operation of the isolated perfused lung (IPL) system pressure and flow recordings were collected using EMKA (version 2.5) software. […] Data was reduced to 5 minute data points for the purposes of statistical comparisons. Mean and standard error were performed on the perfusate and lung tissue concentrations using Microsoft Excel software. Pharmacokinetic properties were evaluated by WinNonlin software (Version 5.0.1, Pharsight Corporation, Sunnyvale, Calif. 94086).
Molecule,Cmax,Tmax
"budesonide [Group-1, reference compound]",104.5 ng/mL,1.3 min
"budesonide [Group-2, reference compound]",,1.3 min
"budesonide [Group-3, reference compound]",,1.3 min
budesonide [Group-4],146.4 ng/mL,
"budesonide [Group-5, reference compound]",,1.3 min
